Measurements reported in US8575089B2, “Composition for preventing or treating inflammation” (University-Industry Cooperation Group of Kyung Hee, priority 2009, dated 2013).
Where no end group is shown, it is not given here.

Key:
[1] = test system: mononuclear cells isolated from peripheral blood; test: IL-6 and IL-10 expression (ELISA) in peripheral blood mononuclear cells treated with SP; format: cell-based, C57b1/6 mice; details: peripheral blood mononuclear cells in T-cell activation media (ConA); 10 nmole/kg SP; 4.5, 10, 24 hours; FIG. 1
Experimental: (§1) Peripheral blood was collected from C57b1/6 mice (8 weeks, sex; male, n=5, Average Weight; 20 g), diluted doubly with PBS, carefully placed on Ficoll in a tube, and then centrifuged at 2200 rpm for 20 minutes. By centrifuging, from the bottom, an erythrocyte layer, a ficoll layer, a mononuclear cell layer, and a plasma layer were obtained in order. The mononuclear cell layer and plasma layer were isolated, excluding the erythrocyte layer and ficoll layer, and then washed one time with PBS. Then, the number of cells was counted; the cells with a concentration of 1×10^5/0.2 ml were seeded onto T-cell activation media (lymphocyte activation media; RPMI, 10% FBS, 100 μM 2-mercaptoetanol, 20 μg/ml ConA); then the cells were cultured at an incubator of 37° C.; and then culture supernatant was taken at 4.5 hours, 10 hours, and 24 hours. For SP-treated group, 10 nmole/kg of SP dissolved in a physiological saline was treated to T-cell activation media. […] After 30 minutes, 100 μl of stop codon was treated to stop the reaction; the optical density was measured at 450 nm; the amounts of cytokines were converted based on a protein conversion formula by a standard sample; and then the results were shown in FIG. 1.

[2] = test system: CD4+ T cell isolated from peripheral blood; test: IL-6 and IL-10 expression (ELISA) in CD4+ T cells treated with SP; format: cell-based, C57b1/6 mice; details: CD4+ T cell in T-cell activation media; SP as Example 1-(1); 4.5, 10, 24 hours; FIG. 2
Experimental: [The procedure below names another cell line; the source says it served here with some conditions changed.] as §1, with “1. […]” for “1.”

[3] = test system: inflammatory cells in blood; test: Radiation-irradiating model: CBC of inflammatory cells in blood; format: in vivo, C57b1/6 mice; details: mice, 8 Gy, 5 nmole/kg SP i.v. one day before and immediately after irradiation, 4.5 hours after irradiation, vs group without SP
Experimental: (§2) 5 nmole/kg of SP dissolved in a physiological saline was injected to a tail vein of C57b1/6 mice (8 weeks, sex; male, n=4, Average weight; 20 g) one day before irradiation and immediately after irradiation. The irradiation was performed at 8 Gy radiation in a Gamma lay radiation irradiator (^137Cs, Atomic Energy of Canada, Mississauga, Canada). The mice were sacrificed at 4.5 hours and one day after irradiation, and then the blood was collected. The part of the blood was used for analyzing CBC (Complete Blood Count) and the remaining blood was used to isolate serum and then analyze cytokines
200 μl of mouse's blood was taken at 4.5 hours and one day after 8 Gy radiation; it was added to a vial including a small amount of EDTA and then analyzed for CBC. […] It was confirmed that SP has an effect of inhibiting an increase of inflammatory cells caused by irradiation.

[4] = test system: IL-6 and TNFα; test: Radiation-irradiating model: inflammatory cytokines IL-6 and TNFα in serum (ELISA); format: in vivo, C57b1/6 mice; details: mice, 8 Gy, 5 nmole/kg SP i.v.
Experimental: as §2
(§3) IL-6 and TNFα that are well known as inflammatory cytokines were analyzed. Specific procedures were as follows: Serum samples stored in […] and reagents, controls, and standard proteins stored in a cold storage were taken out at a room temperature. 50 μl of diluted solution was put into each well; 50 μl of standard, control, and samples were added; well mixed by lightly tapping the plate; and then placed for 2 hours at a room temperature. […] After 30 minutes, 100 μl of stop codon was treated to stop the reaction; the optical density was measured at 450 nm; the amounts of cytokines were converted based on a protein conversion formula by a standard sample; and then the result was shown in FIG. 8. […]

[5] = test system: IL-10; test: Radiation-irradiating model: anti-inflammatory cytokine IL-10 in blood (ELISA); format: in vivo, C57b1/6 mice; details: mice, 8 Gy, 5 nmole/kg SP i.v., FIG. 9
Experimental: as §2
as §3, with “out” for “out at a room temperature. 50 μl of diluted solution was put into each well; 50 μl of standard, control, and samples were added; well mixed by lightly tapping the plate; and then placed for 2 hours”
IL-10 that is well known as an anti-inflammatory cytokine was analyzed with ELISA (R&D System) by using the same method as Example 2-2.

Substance: Substance-P (RPKPQQFFGLM; not fully specified; ends and bridges not checked; UniProt P20366 58-68, looked up)
- expression level of IL-6 in culture supernatant [1]: no a significant difference
- expression level of IL-10 in culture supernatant [1]: increased
- expression level of IL-6 in culture supernatant [2]: no difference
- expression of IL-10 in culture supernatant [2]: increased
- leukocyte (White Blood Cell) in blood ([3]; FIG. 7A): decreased at least two times
- mononuclear cell in blood ([3]; FIG. 7B): decreased at least two times
- neutrophilic leukocyte in blood ([3]; FIG. 7C): decreased at least two times
- decrease of eosinocyte in blood ([3]; FIG. 7D): 30-40%
- inhibition of increase of IL-6 in serum ([4]; 4.5 hours after irradiation, vs group without SP, FIG. 8A): about 30%
- TNF α in serum ([4]; one day after irradiation, FIG. 8): inhibited
- amount of IL-10 in blood ([5]; 4.5 hours after irradiation): increased by at least two times
- amount of IL-10 in blood ([5]; one day after irradiation): increased
